In ChEMBL document CHEMBL1201862, “PubChem BioAssay data set” (2004):
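How tested: cells in 96-well plates exposed to compound for 48 hours at five concentrations. The concentration for 50% growth inhibition is given as GI50.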 Active and inactive are the calls of the source. No stated cut-off is given here; in the data, active = GI50 up to about 1.1 µM and inactive = higher.

Legend:
Assay in all cases: growth of human tumour cells (NCI), 48 h
CCRF-CEM = test system: CCRF-CEM
SR = test system: SR
ACHN = test system: ACHN
TK-10 = test system: TK-10
K562 = test system: K562
NCI-H23 = test system: NCI-H23
SK-MEL-2 = test system: SK-MEL-2
CAKI-1 = test system: CAKI-1
NCI-H226 = test system: NCI-H226
OVCAR-3 = test system: OVCAR-3
M14 = test system: M14
OVCAR-8 = test system: OVCAR-8
SNB-19 = test system: SNB-19
SNB-75 = test system: SNB-75
HOP-92 = test system: HOP-92
EKVX = test system: EKVX
OVCAR-5 = test system: OVCAR-5
A498 = test system: A498

Measured: GI50

CCCN(CCC)CCc1cc(C(C)=O)n(S(=O)(=O)c2ccc(C)cc2)c1
inactive: CCRF-CEM > 100 µM | SR > 100 µM | ACHN > 100 µM | TK-10 > 100 µM | K562 80.9 µM | NCI-H23 > 100 µM | SK-MEL-2 > 100 µM | CAKI-1 84.7 µM | NCI-H226 > 100 µM | OVCAR-3 > 100 µM | M14 20.3 µM | OVCAR-8 > 100 µM | SNB-19 > 100 µM | SNB-75 > 100 µM | HOP-92 > 100 µM | EKVX > 100 µM | OVCAR-5 > 100 µM | A498 > 100 µM

O=C(Nc1ccc(Cl)cc1Cl)C(=O)C(C(=O)c1ccncc1)C1OC(=O)c2ccccc21 (centres undefined)
inactive: CCRF-CEM > 100 µM | SR > 100 µM | ACHN > 100 µM | TK-10 > 100 µM | K562 > 100 µM | NCI-H23 > 100 µM | CAKI-1 > 100 µM | NCI-H226 > 100 µM | OVCAR-3 > 100 µM | M14 > 100 µM | OVCAR-8 > 100 µM | SNB-19 > 100 µM | SNB-75 > 100 µM | HOP-92 > 100 µM | EKVX > 100 µM | OVCAR-5 > 100 µM | A498 > 100 µM

CCC12CCCC(=O)N1C(CO)C(c1ccccc1)O2 (centres undefined)
inactive: CCRF-CEM > 100 µM | SR > 100 µM | ACHN > 100 µM | TK-10 > 100 µM | K562 > 100 µM | NCI-H23 > 100 µM | SK-MEL-2 > 100 µM | CAKI-1 > 100 µM | OVCAR-3 > 100 µM | OVCAR-8 > 100 µM | SNB-19 > 100 µM | SNB-75 > 100 µM | HOP-92 > 100 µM | EKVX > 100 µM | OVCAR-5 > 100 µM | A498 > 100 µM

O=S1(=O)NN=C(NCc2ccc(Cl)c(Cl)c2)c2ccccc21
inactive: CCRF-CEM 9.16 µM | SR 15.6 µM | ACHN > 100 µM | K562 12 µM | SK-MEL-2 > 100 µM | CAKI-1 > 100 µM | NCI-H226 > 100 µM | OVCAR-3 > 100 µM | M14 > 100 µM | OVCAR-8 > 100 µM | SNB-19 > 100 µM | HOP-92 50.1 µM | EKVX > 100 µM | OVCAR-5 > 100 µM | A498 > 100 µM

N#CC(NNC(=O)Cc1ccccc1)c1cccc(O)c1 (centres undefined)
inactive: CCRF-CEM > 100 µM | SR > 100 µM | ACHN > 100 µM | TK-10 > 100 µM | K562 > 100 µM | NCI-H23 > 100 µM | SK-MEL-2 > 100 µM | CAKI-1 > 100 µM | NCI-H226 > 100 µM | M14 > 100 µM | OVCAR-8 > 100 µM | SNB-75 > 100 µM | HOP-92 > 100 µM | OVCAR-5 > 100 µM

CCCCCCCCCCCCN(O)C(=O)c1ccccc1
inactive: CCRF-CEM 3.82 µM | SR 8.26 µM | ACHN 28.2 µM | TK-10 46.5 µM | K562 18.9 µM | NCI-H23 14.9 µM | SK-MEL-2 47 µM | OVCAR-3 > 100 µM | M14 21.2 µM | OVCAR-8 18.9 µM | SNB-19 42.6 µM | SNB-75 22.9 µM | HOP-92 17.7 µM | EKVX 25.9 µM | OVCAR-5 21.5 µM | A498 18.8 µM

CC1=NN(c2ccccc2)C(=O)C1=C1SCCCS1
inactive: CCRF-CEM 11.7 µM | SR 14.3 µM | ACHN > 100 µM | TK-10 23.8 µM | K562 21.1 µM | NCI-H23 29.2 µM | SK-MEL-2 56 µM | CAKI-1 15 µM | NCI-H226 29.3 µM | OVCAR-3 22.3 µM | M14 49.4 µM | OVCAR-8 31.7 µM | SNB-19 22.5 µM | SNB-75 > 100 µM | HOP-92 25.5 µM | EKVX 30.1 µM | OVCAR-5 54 µM | A498 45.7 µM

COc1ccccc1/N=C(\N)N/N=C/c1c[nH]c2ccccc12
inactive: CCRF-CEM 5.93 µM | SR 5.01 µM | ACHN 10.3 µM | TK-10 16.8 µM | K562 2.22 µM | NCI-H23 4.79 µM | SK-MEL-2 6.46 µM | CAKI-1 13.3 µM | NCI-H226 14.4 µM | OVCAR-3 12.2 µM | M14 3.25 µM | OVCAR-8 13 µM | SNB-19 15.3 µM | SNB-75 12.3 µM | EKVX 11 µM | OVCAR-5 13.9 µM

COc1c(C(C)C)cc2c3c1OC(=O)[C@@]31CCCC(C)(C)C1CC2 (some centres undefined)
inactive: CCRF-CEM 18.5 µM | SR 16.9 µM | ACHN 52.5 µM | TK-10 25.2 µM | K562 20.4 µM | NCI-H23 20 µM | SK-MEL-2 28.1 µM | CAKI-1 > 100 µM | NCI-H226 4.92 µM | OVCAR-3 20.5 µM | M14 33.5 µM | OVCAR-8 17.7 µM | SNB-19 5.78 µM | SNB-75 22 µM | EKVX 14.6 µM | OVCAR-5 52.4 µM

C[C@]12CCC3[C@@H](CCC45OC4C(=O)CC[C@]35C)C1Cc1cnn(-c3ccc(F)cc3)c1N2 (some centres undefined)
inactive: CCRF-CEM 21.3 µM | SR 27.2 µM | ACHN 33.6 µM | TK-10 > 100 µM | K562 20.9 µM | NCI-H23 22.2 µM | SK-MEL-2 29.9 µM | NCI-H226 33.4 µM | M14 48.6 µM | OVCAR-8 29.8 µM | SNB-19 27.2 µM | SNB-75 38.6 µM | EKVX 49.9 µM

CC(C)(C)c1cc2ccc(C(N)=O)cc2c(=O)[nH]1
inactive: CCRF-CEM > 100 µM | SR > 100 µM | ACHN > 100 µM | TK-10 > 100 µM | K562 > 100 µM | NCI-H23 > 100 µM | SK-MEL-2 > 100 µM | CAKI-1 80.2 µM | NCI-H226 56 µM | OVCAR-3 > 100 µM | M14 > 100 µM | OVCAR-8 > 100 µM | SNB-19 > 100 µM | SNB-75 27.2 µM | HOP-92 95.1 µM | EKVX 82.4 µM | OVCAR-5 > 100 µM | A498 > 100 µM

O=c1c2cccc3cccc(c4n1CCN=4)c32
inactive: CCRF-CEM 80.2 µM | SR 25.2 µM | ACHN 56 µM | TK-10 17.5 µM | K562 > 100 µM | NCI-H23 > 100 µM | SK-MEL-2 63.7 µM | CAKI-1 63.4 µM | NCI-H226 56.8 µM | OVCAR-3 > 100 µM | M14 73.1 µM | OVCAR-8 > 100 µM | SNB-75 76.9 µM | HOP-92 > 100 µM | EKVX > 100 µM | OVCAR-5 > 100 µM | A498 40.3 µM

N=NCC(=O)OC(COCc1ccccc1)COCc1ccccc1
inactive: CCRF-CEM 57.8 µM | SR > 100 µM | ACHN 25.9 µM | TK-10 > 100 µM | K562 47 µM | NCI-H23 > 100 µM | SK-MEL-2 > 100 µM | CAKI-1 37.9 µM | NCI-H226 > 100 µM | OVCAR-3 > 100 µM | SNB-19 > 100 µM | HOP-92 10.2 µM | EKVX > 100 µM | OVCAR-5 > 100 µM | A498 > 100 µM
